Measured values taken from US5773431A (priority 1997, dated 1998).
Counter-ions that a name gives are not always drawn.

What was measured:
[1] = test system: sterol 27-hydroxylase (Hep G2 cells); test: Sterol 27-hydroxylase activity in Hep G2 cells (metabolites in medium by GLC-MS); format: cell-based; conditions: HEP G2 (n = 6), 72 h, 20 μM cholesterol; for Metabolites Derived from Sterol 27-Hydroxylase: 3βOH-5-cholen. a.: mean value of 2 dishes after solvolysis
Experimental: (§1) Bovine aortic endothelial (BAE) cells obtained from a slaughterhouse were plated at low density (2×10^5 cells/cm^2) in 100-mm dishes and were grown to confluence in Dulbecco's modified Eagle medium (DMEM) supplemented with 10% fetal bovine serum (FBS), 50 units/ml penicillin, and 50 units/ml streptomycin at 37° C. in a 5% CO2 atmosphere. The confluent monolayer was rinsed once with Hank's balanced salt solution, and 4 ml of DMEM containing 10% […] FBS and either 20 μM cholesterol dissolved in 2-hydroxypropyl-β-cyclodextrin or an equivalent amount of vehicle alone was added to each dish. Hep G2 cells and Chinese hamster ovary cells (CHO) were cultured under identical conditions and for the same length of time. At 24-h intervals, the media and cells were harvested. The medium obtained from each dish was analyzed for metabolites. Cells were pooled for immunoblot analysis.
(§2) Following acidification and extraction into ethyl acetate, the dried residue was saponified. In some studies, solvolysis was also done prior to extraction.
(§3) Using a Hewlett-Packard GLC-MS (Model #5890-5970) and a fused silica column (CP-sil 19 CB, 0.25 mm i.d., 25 m length; Chrompack, Raritan, N.J.), the appropriate TLC fractions were injected in the splitless mode with temperature programming from 260° C. to 270° C. at 1.0° C./min and a column head pressure of 5 psi.
(§4) For the C27 acid, the ion pair that was used was m/z […] [methyl ester acetate mol ion=476-60 (acetate)] and m/z 416, and for the C24 acid, m/z 370 [mol ion methyl ester acetate=430-60 (acetate)] and m/z 373.

[2] = test system: sterol 27-hydroxylase (BAE cells); test: Sterol 27-hydroxylase activity in BAE cells (metabolites in medium by GLC-MS); format: cell-based, bovine; conditions: for Proportion of C27 bile acid of total metabolite: cholesterol-supplemented medium; for Synthesis by BAE cells: amount in medium: delipidated FBS + 20 nmol/ml cholesterol
Experimental: as §1, §2, §3, §4

[3] = test system: sterol 27-hydroxylase (CHO cells); test: Sterol 27-hydroxylase activity in CHO cells (metabolites in medium by GLC-MS); format: cell-based, Chinese hamster
Experimental: as §1, §2, §3, §4

[4] = test system: rabbit smooth muscle cells; test: Rabbit smooth muscle cell proliferation (formazan formation from MTS); format: cell-based; conditions: 24 hr; for Optical density of wells (cell proliferation, MTS formazan): 20 μm, 5% delipidated FBS, control wells 0.402±0.037
Experimental: Cell proliferation at 24 hr was measured using formazan formation from MTS which is known to correlate with the number of cells present in each well.

[5] = test system: intimal thickening of abdominal aorta; test: Vascular injury model: balloon-injured rabbit aorta, intimal thickening by intimal/medial (I/M) ratio; format: in vivo, New Zealand white rabbits
Experimental: New Zealand white rabbits weighing 2.6 to 5.1 kgs were anesthetized with intramuscular ketamine 35 mg/kg. Additional injections of ketamine (100 mg/cc) and xylazine (20 mg/cc) in a 50/50 mixture were given as necessary in 1 ml increments. Keflin (Eli Lilly & Co.), 30/mg/kg was given intravenously (IV). A longitudinal incision was made on the medial aspect of the distal hind limb to expose the greater saphenous artery. Arteriotomy was performed, and a 3-F Fogarty embolectomy catheter (Edwards Laboratories, Santa Ana, Calif.) was introduced and advanced to the level of the diaphragmatic abdominal aorta. The catheter was withdrawn from the abdominal aorta with the balloon inflated to a pressure of about 20 mm hg. This maneuver was repeated for a total of three passes. The catheter was removed, and the saphenous artery was ligated. […]
The abdominal aortas were fixed by perfusion with glutaraldehyde at physiological pressure via a catheter (14G Intracath) placed in the left ventricle. […] The entire intimal and medial areas in more than 2 sections per specimen were measured using Lucida computer calculation (Micro Brightfield, Inc.). The degree of intimal thickening was determined by calculating the intimal to medial area (I/M) ratio. Statistical significance of the difference in intimal/medial ratio between groups was calculated using student t-test. […]

HCT-8 = test: Cell proliferation of tumor cell line HCT-8; format: cell-based; conditions: read-out: Concentration of 27-Hydroxycholesterol Yielding 50% Growth Inhibition; HCT-8 (human colon carcinoma)
Description: (§5) Conventional methods of cell culture were utilized in this experiment.

[6] = test system: hamster aortic smooth muscle cells; conditions: six days, at the tested concentration; cited from earlier work
[7] = test system: smooth muscle cells derived from human femoral artery; test: Proliferation of smooth muscle cells derived from human femoral artery; format: cell-based; conditions: Human Femoral A, 72 hr, read-out: Percent of Control Growth
Experimental: (§6) Smooth muscle cells were cultured according to Ross (J. Cell. Biol., 50:172, 1971) from the intima-medial layer of male Sprague-Dawley rats (200-250 g). Cells were grown in monolayers at 37° C. in a humidified atmosphere of 5% CO2 in MEM supplemented with 10% FBS, 100 U/ml penicillin, 0.1 mg/ml streptomycin, […] tricine buffer and 1% non-essential amino acid solution (Corsini et al, Atherosclerosis, 101:117, 1993). The medium was changed every third day. Cells were used between the 4th and 10th passage. Cell viability was assessed by trypan blue exclusion. Smooth muscle cells were identified for growth behavior, morphology, and using monoclonal antibody specific for α-actin, using the isoform typical for smooth muscle cells. Human vascular myocytes were taken from a human femoral artery and grown under the same culture conditions.
(§7) Smooth muscle cells derived from rat aorta were seeded at a density of 2×10^5 and those from the femoral artery at a density of 5×10^4. […] Cell proliferation was determined at 72 hr either by trypsinization of the monolayer and counting in a model ZM Coulter Counter or by incorporation of tritiated thymidine after a 3 hr incubation.

[8] = test system: smooth muscle cells derived from rat aorta; test: Proliferation of smooth muscle cells derived from rat aorta; format: cell-based, rat (male Sprague-Dawley); conditions: 72 hr
Experimental: as §6, §7

[9] = in hydroxypropyl-beta-cyclodextrin vehicle
[10] = Nonfasted rabbits, treated
K-12 cells = test: Cell proliferation of tumor cell line K-12; format: cell-based; conditions: K12, read-out: Concentration of 27-Hydroxycholesterol Yielding 50% Growth Inhibition; K-12 cells (adenocarcinoma line)
Description: as §5

L1210 cells = test: Cell proliferation of tumor cell line L1210; format: cell-based; conditions: read-out: Concentration of 27-Hydroxycholesterol Yielding 50% Growth Inhibition; L1210 cells (mouse leukemia cell line)
Description: as §5

intimal proliferation = conditions: cited from earlier work
[11] = test system: cholesterol synthesis and accumulation; conditions: cited from earlier work
restenosis = conditions: high doses, cited from earlier work
HCT-8 cells = test: In vitro cytotoxicity test of uridyl derivative with HCT-8 cells (FIG. 1); format: cell-based, human
Description: The results of the experimentation is illustrated in FIG. 1.

[12] = BAE (n = 6), 72 h, 20 μM cholesterol
[13] = CHO (n = 3), 72 h, 20 μM cholesterol

CC(C)CCC[C@@H](C)[C@H]1CC[C@H]2[C@@H]3CC=C4C[C@@H](O)CC[C@]4(C)[C@H]3CC[C@]12C [cholesterol]
Metabolites Derived from Sterol 27-Hydroxylase, Total [1]: 4033 pmol/mg/cell protein | Metabolites Derived from Sterol 27-Hydroxylase, Total [2, 12]: 3029 pmol/mg/cell protein | Metabolites as percent of the cholesterol added to the medium ([2]; BAE cells, 20 nmol/ml cholesterol, 72 h): approximately 5.8% | Metabolites Derived from Sterol 27-Hydroxylase, Total [3, 13]: 2 pmol/mg/cell protein

CC(CCC[C@@H](C)[C@H]1CC[C@H]2[C@@H]3CC=C4C[C@@H](O)CC[C@]4(C)[C@H]3CC[C@]12C)C(=O)O (stereo partly drawn) [3β-hydroxy-5-cholestenoic acid]
Metabolites Derived from Sterol 27-Hydroxylase [1]: 471 ± 126 pmol/mg/cell protein | Metabolites Derived from Sterol 27-Hydroxylase [2, 12]: 474 ± 118 pmol/mg/cell protein | Proportion of C27 bile acid of total metabolite ([2]; BAE cells, 24 h): 3.8% | Proportion of C27 bile acid of total metabolite ([2]; BAE cells, 72 h): 17% | Synthesis by BAE cells: amount in medium ([2]; 24 h): 42.5 ± 6.1 pmol/ml medium | Synthesis by BAE cells: amount in medium ([2]; 48 h): 112 ± 12.4 pmol/ml medium | Synthesis by BAE cells: amount in medium ([2]; 72 h): 211 ± 48.3 pmol/ml medium | Metabolites Derived from Sterol 27-Hydroxylase [3, 13]: 2 ± 1 pmol/mg/cell protein | Optical density of wells (cell proliferation, MTS formazan) [4]: 0.357±0.22

C[C@@H](CO)CCC[C@@H](C)[C@H]1CC[C@H]2[C@@H]3CC=C4C[C@@H](O)CC[C@]4(C)[C@H]3CC[C@]12C [27-hydroxycholesterol, cholest-5-ene-3β, 27-diol]
Reduction of the degree of intimal thickening as compared with the control group ([5]; Run II, 14 days): 1/2 | IC50 (HCT-8): 11.5 µM | Inhibition of proliferation [6]: about 50% | Metabolites Derived from Sterol 27-Hydroxylase [1]: 1622 ± 291 pmol/mg/cell protein | Metabolites Derived from Sterol 27-Hydroxylase [2, 12]: 2555 ± 348 pmol/mg/cell protein | Synthesis by BAE cells: amount in medium ([2]; 24 h): 1089 ± 111 pmol/ml medium | Synthesis by BAE cells: amount in medium ([2]; 48 h): 1064 ± 161 pmol/ml medium | Synthesis by BAE cells: amount in medium ([2]; 72 h): 1029 ± 99 pmol/ml medium | activity at 1 µM ([7]; 1.0 μM): 100% | activity at 5 µM ([7]; 5.0 μM, p < 0.01): 53% | activity at 1 µM ([8]; 1.0 μM, read-out: Percent of Control Growth): 90% | activity at 5 µM ([8]; 5.0 μM, p < 0.01, read-out: Percent of Control Growth): 40% | activity at 7.5 µM ([8]; 7.5 μM, read-out: Percent of Control Growth): 18% | Viscosity of preparation [9]: very viscous | Amount present in medium from CHO cells (below the limit of detection) ([3]; 72 h, cholesterol-supplemented medium): < 10 ng per assay | Metabolites Derived from Sterol 27-Hydroxylase [3, 13]: not detected | Distribution of Plasma 27-Hydroxycholesterol, LDL [10]: 55% | IC50 (K-12 cells): 3.7 µM | IC50 (L1210 cells): 1.2 µM | Optical density of wells (cell proliferation, MTS formazan) [4]: 0.350±0.021 | Reduction of optical density compared to control wells ([4]; p<0.01): significant reduction

Cc1ccc(C(=O)Nc2ccc(S(=O)(=O)O)c3cc(S(=O)(=O)O)cc(S(=O)(=O)O)c23)cc1NC(=O)c1cccc(NC(=O)Nc2cccc(C(=O)Nc3cc(C(=O)Nc4ccc(S(=O)(=O)O)c5cc(S(=O)(=O)O)cc(S(=O)(=O)O)c45)ccc3C)c2)c1 [Suramin, suramin, reference compound]
Mean Intima/Media Ratio ([5]; Run I, 14-day, test group of 5 rabbits, suramin p < 0.05, 27-hydroxycholesterol 10 mg i.v. day before surgery, 5 mg day of surgery, 5 mg twice a day days 1 to 14, in 45% HPBCD): 0.4089 ± 0.034 | Inhibition of intimal proliferation (intimal proliferation): shown to inhibit intimal proliferation

CC(CN)CCC[C@@H](C)[C@H]1CC[C@H]2[C@@H]3CC=C4C[C@@H](O)CC[C@]4(C)[C@H]3CC[C@]12C (stereo partly drawn) [27-aminocholesterol]
Potency as inhibitor of cholesterol synthesis and accumulation relative to 27-hydroxycholesterol [11]: more potent

CC[C@H](C)C(=O)O[C@H]1C[C@@H](C)C=C2C=C[C@H](C)[C@H](CC[C@@H]3C[C@@H](O)CC(=O)O3)[C@H]21 [Lovastatin]
Restenosis (restenosis; six months following percutaneous transluminal coronary angioplasty): did not decrease restenosis | LDL-cholesterol level (restenosis): markedly decrease

C[C@H](CCC(=O)O)[C@H]1CC[C@H]2[C@@H]3CC=C4C[C@@H](O)CC[C@]4(C)[C@H]3CC[C@]12C [3β-hydroxy-5-cholenoic acid]
Metabolites Derived from Sterol 27-Hydroxylase [1]: 1940 ± 270 pmol/mg/cell protein | Metabolites Derived from Sterol 27-Hydroxylase [2, 12]: not detected | Metabolites Derived from Sterol 27-Hydroxylase [3, 13]: not detected | Amount in the medium from CHO cells ([3]; compared with Hep G2 or BAE cells): small amount

C[C@@H](CO)CCC[C@@H](C)[C@H]1CC[C@H]2[C@@H]3CC=C4C[C@@H](OP(=O)(O)OC[C@H]5O[C@@H](n6ccc(=O)[nH]c6=O)[C@H](O)[C@@H]5O)CC[C@]4(C)[C@H]3CC[C@]12C [uridine derivative, sodium salt of 3-[(25R)-26-hydroxycholesteryl]5'-uridyl monophosphate]
Inhibition of cell viability: death of HCT-8 cells (HCT-8 cells; 500 μM): cell death | Percentage of viable cells (HCT-8 cells; 100 to 500 μM, after 5 days of exposure): drops dramatically
